Measured values published in patent US20080318943A1, “Compounds and Uses Thereof - 848” (ASTRAZENECA AB, priority 2007, published 2008).
Values joined by “and” are separate entries in the source; they are usually repeats but may differ in a detail not shown here. Equal entries are not always repeated.

molecular target: T1, GABAA receptor α1β2γ2 (Homo sapiens, UniProt P14867+P18507); assay: Two-electrode voltage-clamp potentiation of GABA EC10 current in Xenopus oocytes, GABAA1; assay type: cell-based; settings: percentage potentiation of GABA EC10 current divided by that of diazepam
T1 construct: expressed in transfected cells; host or cells: Xenopus laevis oocytes injected with cRNA
T1 sequence (P14867 28-456): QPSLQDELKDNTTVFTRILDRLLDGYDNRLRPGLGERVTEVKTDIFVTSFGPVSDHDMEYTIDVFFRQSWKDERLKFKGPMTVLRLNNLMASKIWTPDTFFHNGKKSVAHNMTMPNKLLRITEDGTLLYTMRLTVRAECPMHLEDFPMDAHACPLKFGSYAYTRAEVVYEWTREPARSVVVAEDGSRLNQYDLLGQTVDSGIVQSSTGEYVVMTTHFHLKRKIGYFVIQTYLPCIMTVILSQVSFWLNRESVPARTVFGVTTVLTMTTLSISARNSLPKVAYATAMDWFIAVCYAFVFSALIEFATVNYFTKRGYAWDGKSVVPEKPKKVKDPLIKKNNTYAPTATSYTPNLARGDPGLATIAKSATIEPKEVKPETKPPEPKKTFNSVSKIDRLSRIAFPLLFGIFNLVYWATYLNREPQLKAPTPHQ
T1 sequence (P47870 25-512 partner limits assumed): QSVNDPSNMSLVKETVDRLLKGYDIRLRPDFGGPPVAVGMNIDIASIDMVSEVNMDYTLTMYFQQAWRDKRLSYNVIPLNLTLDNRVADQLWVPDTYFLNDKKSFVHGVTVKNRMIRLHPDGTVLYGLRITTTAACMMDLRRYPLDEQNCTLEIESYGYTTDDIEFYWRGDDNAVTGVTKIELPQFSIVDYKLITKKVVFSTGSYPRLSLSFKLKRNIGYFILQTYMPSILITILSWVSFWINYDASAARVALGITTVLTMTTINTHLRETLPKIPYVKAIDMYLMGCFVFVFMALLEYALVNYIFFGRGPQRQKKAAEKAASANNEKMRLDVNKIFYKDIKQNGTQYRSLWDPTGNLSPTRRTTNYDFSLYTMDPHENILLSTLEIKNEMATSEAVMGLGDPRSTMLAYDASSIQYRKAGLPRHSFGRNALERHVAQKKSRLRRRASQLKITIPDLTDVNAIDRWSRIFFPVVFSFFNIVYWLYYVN
T1 sequence (P18507 40-475): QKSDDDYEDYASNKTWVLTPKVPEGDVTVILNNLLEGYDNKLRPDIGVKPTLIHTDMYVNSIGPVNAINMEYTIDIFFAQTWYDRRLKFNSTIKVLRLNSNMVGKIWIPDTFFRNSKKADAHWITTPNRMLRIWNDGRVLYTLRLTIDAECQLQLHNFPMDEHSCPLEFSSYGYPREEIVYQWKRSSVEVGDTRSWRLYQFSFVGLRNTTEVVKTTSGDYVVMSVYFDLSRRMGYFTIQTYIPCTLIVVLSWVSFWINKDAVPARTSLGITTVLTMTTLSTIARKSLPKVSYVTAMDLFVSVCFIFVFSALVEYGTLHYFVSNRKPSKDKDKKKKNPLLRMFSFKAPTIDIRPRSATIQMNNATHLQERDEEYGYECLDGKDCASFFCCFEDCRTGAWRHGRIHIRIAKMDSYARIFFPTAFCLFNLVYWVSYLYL
Description: GABAA receptors were heterologously expressed in Xenopus oocytes by injecting cRNA corresponding to human α1, α2, α3, α5, β2, P3 and γ2 subunits of the GABAA receptor genes. The specific subunit combinations (subtypes) were as follows: α1β2γ2, α2β3γ2, α3β3γ2, and α5β3γ2. The EC10 of GABA is approximated for each cell. Stability of GABA-mediated (EC10) current is established. Modulatory effect of test compound is determined and compared across subtypes. […] Thus, the assay can characterize modulatory effects and determine subtype selectivity of test compounds on major subtypes of GABAA receptors.
Xenopus laevis frogs (Xenopus I, Kalamazoo, Mich.) were anesthetized using 0.15% tricaine. Surgically removed ovarian lobes were teased out in OR2 solution (82 NaCl, 2.5 KCl, 5 HEPES, 1.5 NaH2PO4, 1 MgCl2, 0.1 EDTA, in mM, pH 7.4). The oocytes were defolliculated by incubation in 25 mL OR2 containing 0.2% collagenase 1A (SIGMA) two times for about 60 minutes on a platform shaker and stored in Leibovitz's L-15 medium. Oocytes were injected the following day in 0.5× Leibovitz's L-15 medium containing […] gentamycin, 10 units/ml penicillin, and […] streptomycin.
Capped cRNAs from the linearized vectors containing human α1, β2 and γ2 subunits of the GABAA receptor genes were mixed in ratio of […]. Oocytes were injected with 25-50 nL of mixed RNA with an appx molar ratio for α1, β2, and γ2 as 1:1:10. Oocyte recordings were done 2-10 days after injection. The same methods apply to subtypes derived from α2β3γ2, α3β3γ2, and α5β3γ2, except for 1:1:1 ratio was used for α, β, and γ subunits.
All measurements were done in a medium containing ND-96 (96 NaCl, 2 KCl, 1.8 CaCl2.2H2O, 1 MgCl2.6H2O, 5 HEPES, in mM, pH 7.5). Two-electrode voltage-clamp recording was carried out using OpusXpress amplifier (Axon Instruments, Foster City, Calif.), which allows simultaneous recording from 8 oocytes. Oocytes were impaled with two electrodes of 1-2 MΩ tip resistance when filled with 3M KCl. Recordings were begun when membrane potential became stable at potentials negative to −50-−60 mV. Membrane potential was held at −60 mV. […] The concentration of GABA corresponded to the EC10 value calculated for each oocyte. The modulator pulses started 30 s before the GABA pulse so as to allow preincubation with the modulator. A set of 3 pulses with just GABA without modulator was given prior to the modulator-containing pulses to define the baseline GABA response. Two oocytes per each experiment were dedicated to observe the effect of diazepam on GABA response to ensure the presence of γ2 subunit in the GABAA pentameric complex, which imparts diazepam sensitivity to the complex.
Current amplitude (i) was measured from baseline to peak using Clampfit (Axon Inst., Foster City, Calif.). Potentiation was calculated as percent change from the baseline GABA current flux 100×(imod/icontrol)−1) where imod=current mediated by modulator+GABA and icontrol=current mediated by GABA alone. […] Similarly, a value of −50% potentiation means the presence of modulator caused a 50% decrease in the control current. Various other data shown here were fitted and plotted using GraphPad Prism (GraphPad Software, Inc. San Diego, Calif.). The percentage potentiation was converted to relative potentiation by dividing it with percentage potentiation value obtained from the same assay with diazepam as a control.

**Q.** Which “Relative Potentiation for GABAA1” value does the source give for CCCCN1Cc2nc3c(-c4cc(C)ccc4OC)cccc3c(N)c2C1=O [9-amino-2-butyl-5-(2-methoxy-5-methylphenyl)-2,3-dihydro-1H-pyrrolo[3,4-b]quinolin-1-one] here?
**A.** 0.56

**Q.** Which “Relative Potentiation for GABAA1” value does the source give for CCCN1Cc2nc3c(-c4ccc(OC)c(OC)c4OC)cccc3c(N)c2C1=O [9-amino-2-propyl-5-(2,3,4-trimethoxyphenyl)-2,3-dihydro-1H-pyrrolo[3,4-b]quinolin-1-one] here?
**A.** 0.55

**Q.** How did the “Relative Potentiation for GABAA1” value turn out when CCCCN1Cc2nc3c(-c4c(F)cccc4OC)cccc3c(N)c2C1=O [9-amino-2-butyl-5-(2-fluoro-6-methoxyphenyl)-2,3-dihydro-1H-pyrrolo[3,4-b]quinolin-1-one] was run?
**A.** 0.25

**Q.** Which “Relative Potentiation for GABAA1” value does the source give for CCCN1Cc2nc3c(-c4ccc(Cl)nc4C)cccc3c(N)c2C1=O [9-amino-5-(6-chloro-2-methylpyridin-3-yl)-2-propyl-2,3-dihydro-1H-pyrrolo[3,4-b]quinolin-1-one] here?
**A.** 1.1

**Q.** Which “Relative Potentiation for GABAA1” value does the source give for CCCN1Cc2nc3c(-c4cccc(OC)c4OC)cccc3c(N)c2C1=O [9-amino-5-(2,3-dimethoxyphenyl)-2-propyl-2,3-dihydro-1H-pyrrolo[3,4-b]quinolin-1-one] here?
**A.** 0.3

molecular target: T2, GABAA2 receptors (α2, β3, γ2 receptor subunits transfected into Sf9 cells) (Homo sapiens, UniProt P18507+P47869); assay: GABAA2 Binding Method ([3H]-Flunitrazepam displacement); settings: [3H]-Flunitrazepam ~2 nM, α2β3γ2 Sf9 membranes, 1 hr at 4° C.
T2 construct: host or cells: Sf9 cells (membranes)
T2 sequence (P47869 29-451): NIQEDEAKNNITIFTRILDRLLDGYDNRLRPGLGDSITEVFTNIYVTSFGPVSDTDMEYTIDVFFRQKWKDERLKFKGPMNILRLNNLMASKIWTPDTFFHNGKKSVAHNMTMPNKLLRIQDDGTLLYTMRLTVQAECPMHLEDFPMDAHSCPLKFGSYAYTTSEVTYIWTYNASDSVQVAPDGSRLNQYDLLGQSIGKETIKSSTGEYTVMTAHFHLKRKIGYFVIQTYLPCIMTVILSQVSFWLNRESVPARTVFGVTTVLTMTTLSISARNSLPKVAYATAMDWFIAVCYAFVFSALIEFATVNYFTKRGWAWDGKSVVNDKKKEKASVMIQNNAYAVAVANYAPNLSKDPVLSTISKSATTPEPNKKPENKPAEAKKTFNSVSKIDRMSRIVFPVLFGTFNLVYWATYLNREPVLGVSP
T2 sequence (P28472 26-473 partner): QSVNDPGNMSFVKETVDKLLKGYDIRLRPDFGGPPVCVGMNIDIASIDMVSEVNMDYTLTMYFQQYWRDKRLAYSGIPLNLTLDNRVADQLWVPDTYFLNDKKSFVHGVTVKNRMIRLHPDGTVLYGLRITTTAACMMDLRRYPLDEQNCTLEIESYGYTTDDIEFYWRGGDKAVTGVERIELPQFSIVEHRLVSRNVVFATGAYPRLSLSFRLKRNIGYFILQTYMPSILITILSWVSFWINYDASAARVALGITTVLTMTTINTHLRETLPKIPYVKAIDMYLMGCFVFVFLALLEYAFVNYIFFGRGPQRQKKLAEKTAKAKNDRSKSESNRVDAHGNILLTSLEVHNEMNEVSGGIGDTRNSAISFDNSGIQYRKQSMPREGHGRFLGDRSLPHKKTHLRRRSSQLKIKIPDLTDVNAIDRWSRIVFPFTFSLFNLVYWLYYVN
T2 sequence (P18507 40-475): as the sequence (P18507 40-475) above
Description: In some embodiments, the binding test is directed to a subtype of GABAA receptors, such as GABAA1 receptors (i.e., those containing the α1 subunit), GABAA2 receptors (i.e., those containing the α2 subunit), GABAA3 receptors (i.e., those containing the α3 subunit) and GABAA5 receptors (i.e., those containing the α5 subunit).
[^3H]-Flunitrazepam (Cat #NET567): Prepare 10× stock=20 nM, [F} in assay=˜2 nM
1. […] Add 5 ul of 30 uM flumazenil to wells 12 D-E for 50% control wells.
5. Add 25 μl [^3H]-Flunitrazepam (Automation Program 6). Incubate for 1 hr at 4° C.
6. Collect membranes on a cell harvester onto GF/B filter plates (pre-wet with dH2O and wash 5×400 μl/well, with cold assay buffer. (First 3 washes are considered hot; last two are cold.)
Data is analyzed by calculating percent of control, IC50, and Ki in an XLfit template. The following formula is used in the templates: […]

**Q.** Which Ki does the source give for CCCCN1Cc2nc3c(-c4cc(C)ccc4OC)cccc3c(N)c2C1=O [9-amino-2-butyl-5-(2-methoxy-5-methylphenyl)-2,3-dihydro-1H-pyrrolo[3,4-b]quinolin-1-one] here?
**A.** 21.3 nM

**Q.** CCCN1Cc2nc3c(-c4ccc(OC)c(OC)c4OC)cccc3c(N)c2C1=O [9-amino-2-propyl-5-(2,3,4-trimethoxyphenyl)-2,3-dihydro-1H-pyrrolo[3,4-b]quinolin-1-one] was tested. Which Ki did it give?
**A.** 49.8 nM

**Q.** How did the Ki turn out when CCCCN1Cc2nc3c(-c4c(F)cccc4OC)cccc3c(N)c2C1=O [9-amino-2-butyl-5-(2-fluoro-6-methoxyphenyl)-2,3-dihydro-1H-pyrrolo[3,4-b]quinolin-1-one] was run?
**A.** 4.62 nM

**Q.** For CCCN1Cc2nc3c(-c4ccc(Cl)nc4C)cccc3c(N)c2C1=O [9-amino-5-(6-chloro-2-methylpyridin-3-yl)-2-propyl-2,3-dihydro-1H-pyrrolo[3,4-b]quinolin-1-one], which Ki is on record?
**A.** 23.1 nM

**Q.** With CCCN1Cc2nc3c(-c4cccc(OC)c4OC)cccc3c(N)c2C1=O [9-amino-5-(2,3-dimethoxyphenyl)-2-propyl-2,3-dihydro-1H-pyrrolo[3,4-b]quinolin-1-one] as the compound, how does the Ki read?
**A.** 24.5 nM

**Q.** How did the Ki turn out when COc1cccc(F)c1-c1cccc2c(N)c3c(nc12)CN(C1CC1)C3=O [Example 16, 9-Amino-2-cyclopropyl-5-(2-fluoro-6-methoxyphenyl)-2,3-dihydropyrrolo[3,4-b]quinolin-1-one] was run?
**A.** 3.63 nM and 6.36 nM

**Q.** For CCCN1Cc2nc3c(-c4cnn(C)c4)cccc3c(N)c2C1=O [9-amino-5-(1-methyl-1H-pyrazol-4-yl)-2-propyl-2,3-dihydro-1H-pyrrolo[3,4-b]quinolin-1-one], which Ki is on record?
**A.** 99.7 nM

**Q.** Which Ki does the source give for CCN1Cc2nc3c(-c4cccc(OC)c4OC)cccc3c(N)c2C1=O [9-amino-5-(2,3-dimethoxyphenyl)-2-ethyl-2,3-dihydro-1H-pyrrolo[3,4-b]quinolin-1-one] here?
**A.** 81.9 nM

**Q.** With COc1ccc(C)cc1-c1cccc2c(N)c3c(nc12)CN(C)C3=O [9-amino-5-(2-methoxy-5-methylphenyl)-2-methyl-2,3-dihydro-1H-pyrrolo[3,4-b]quinolin-1-one] as the compound, how does the Ki read?
**A.** 70.2 nM

**Q.** COc1ccc(-c2cccc3c(N)c4c(nc23)CN(C)C4=O)c(OC)c1 [9-amino-5-(2,4-dimethoxyphenyl)-2-methyl-2,3-dihydro-1H-pyrrolo[3,4-b]quinolin-1-one] was tested. Which Ki did it give?
**A.** 79 nM

**Q.** How did the Ki turn out when COc1ccc(CN2Cc3nc4c(-c5cccc(F)c5F)cccc4c(N)c3C2=O)cc1 [9-amino-5-(2,3-difluorophenyl)-2-(4-methoxybenzyl)-2,3-dihydro-1H-pyrrolo[3,4-b]quinolin-1-one] was run?
**A.** 98.2 nM

**Q.** How did the Ki turn out when CCN1Cc2nc3c(-c4cccc(OC)c4F)c(F)ccc3c(N)c2C1=O [9-amino-2-ethyl-6-fluoro-5-(2-fluoro-3-methoxyphenyl)-2,3-dihydro-1H-pyrrolo[3,4-b]quinolin-1-one] was run?
**A.** 5.29 nM

**Q.** CCCN1Cc2nc3c(-c4c(F)cccc4OC)c(F)ccc3c(N)c2C1=O [Example 55, 9-Amino-6-fluoro-5-(2-fluoro-6-methoxyphenyl)-2-propyl-2,3-dihydropyrrolo[3,4-b]quinolin-1-one] was tested. Which Ki did it give?
**A.** 3.49 nM

**Q.** With Cc1ccncc1-c1cccc2c(N)c3c(nc12)CN(C)C3=O [9-amino-2-methyl-5-(4-methylpyridin-3-yl)-2,3-dihydro-1H-pyrrolo[3,4-b]quinolin-1-one] as the compound, how does the Ki read?
**A.** 64.9 nM

**Q.** How did the Ki turn out when COc1cccc(F)c1-c1cccc2c(N)c3c(nc12)CN(Cc1cccc(Cl)c1)C3=O [9-amino-2-(3-chlorobenzyl)-5-(2-fluoro-6-methoxyphenyl)-2,3-dihydro-1H-pyrrolo[3,4-b]quinolin-1-one] was run?
**A.** 27.8 nM

**Q.** How did the Ki turn out when COc1ccc(-c2cccc3c(N)c4c(nc23)CN(C)C4=O)cc1OC [9-amino-5-(3,4-dimethoxyphenyl)-2-methyl-2,3-dihydro-1H-pyrrolo[3,4-b]quinolin-1-one] was run?
**A.** 88 nM

**Q.** CCCN1Cc2nc3c(-c4cccc(Cl)c4)cccc3c(N)c2C1=O [9-amino-5-(3-chlorophenyl)-2-propyl-2,3-dihydro-1H-pyrrolo[3,4-b]quinolin-1-one] was tested. Which Ki did it give?
**A.** 76.5 nM

**Q.** With Cc1cc(C)cc(-c2cccc3c(N)c4c(nc23)CN(C)C4=O)c1 [9-amino-5-(3,5-dimethylphenyl)-2-methyl-2,3-dihydro-1H-pyrrolo[3,4-b]quinolin-1-one] as the compound, how does the Ki read?
**A.** 65.5 nM

**Q.** For COc1ccc(F)c(-c2cccc3c(N)c4c(nc23)CN(C)C4=O)c1 [9-amino-5-(2-fluoro-5-methoxyphenyl)-2-methyl-2,3-dihydro-1H-pyrrolo[3,4-b]quinolin-1-one], which Ki is on record?
**A.** 55.8 nM

**Q.** For CCCN1Cc2nc3c(-c4cnc(Cl)c(C)c4)cccc3c(N)c2C1=O [9-amino-5-(6-chloro-5-methylpyridin-3-yl)-2-propyl-2,3-dihydro-1H-pyrrolo[3,4-b]quinolin-1-one], which Ki is on record?
**A.** 85.7 nM

**Q.** For CCN1Cc2nc3c(-c4cc(F)cc(OC)c4)cccc3c(N)c2C1=O [9-amino-2-ethyl-5-(3-fluoro-5-methoxyphenyl)-2,3-dihydro-1H-pyrrolo[3,4-b]quinolin-1-one], which Ki is on record?
**A.** 34.3 nM

**Q.** Nc1c2c(nc3c(-c4cccnc4)cccc13)CN(C1CC1)C2=O [9-amino-2-cyclopropyl-5-(pyridin-3-yl)-2,3-dihydro-1H-pyrrolo[3,4-b]quinolin-1-one] was tested. Which Ki did it give?
**A.** 64.7 nM

**Q.** For COc1ccc(CN2Cc3nc4c(-c5cc(OC)ccc5OC)cccc4c(N)c3C2=O)cc1 [9-amino-5-(2,5-dimethoxyphenyl)-2-(4-methoxybenzyl)-2,3-dihydro-1H-pyrrolo[3,4-b]quinolin-1-one], which Ki is on record?
**A.** 70.2 nM

**Q.** With COc1ccc(-c2c(F)ccc3c(N)c4c(nc23)CN(C2CC2)C4=O)c(OC)n1 [Example 54, 9-Amino-2-cyclopropyl-5-(2,6-dimethoxypyridin-3-yl)-6-fluoro-2,3-dihydropyrrolo[3,4-b]quinolin-1-one] as the compound, how does the Ki read?
**A.** 14.5 nM

**Q.** With COc1ccccc1-c1cccc2c(N)c3c(nc12)CN(C1CC1)C3=O [9-amino-2-cyclopropyl-5-(2-methoxyphenyl)-2,3-dihydro-1H-pyrrolo[3,4-b]quinolin-1-one] as the compound, how does the Ki read?
**A.** 54.1 nM

**Q.** COc1cc(OC)cc(-c2cccc3c(N)c4c(nc23)CN(C)C4=O)c1 [9-amino-5-(3,5-dimethoxyphenyl)-2-methyl-2,3-dihydro-1H-pyrrolo[3,4-b]quinolin-1-one] was tested. Which Ki did it give?
**A.** 74.1 nM

**Q.** COc1ccc(-c2cccc3c(N)c4c(nc23)CN(C)C4=O)c(F)c1 [9-amino-5-(2-fluoro-4-methoxyphenyl)-2-methyl-2,3-dihydro-1H-pyrrolo[3,4-b]quinolin-1-one] was tested. Which Ki did it give?
**A.** 77.8 nM

**Q.** COc1ccc(OC)c(-c2c(SC)ccc3c(N)c4c(nc23)CN(C2CC2)C4=O)c1 [9-amino-2-cyclopropyl-5-(2,5-dimethoxyphenyl)-6-(methylthio)-2,3-dihydro-1H-pyrrolo[3,4-b]quinolin-1-one] was tested. Which Ki did it give?
**A.** 36.7 nM
